Experimental findings from patent US20040023884A1, “Biologically active peptides from functional domains of bactericidal/permeability-increasing protein and uses thereof” (priority 1993, published 2004) are described below.

Like-named read-outs stand apart in the source and are kept apart here. Square brackets hold non-standard residues; d marks the D form. Ends that are not written are not given here. 1Nal = N[C@@H](Cc1cccc2ccccc12)C(=O)O

The subject of test [1] is rough mutant E. coli J5 bacteria. Put plainly: Radial diffusion bactericidal assay, E. coli J5. Type of test: cell-based. Conditions: radial diffusion; for bactericidal activity (in words): E. coli J5; for pmol added to well to achieve a 30 mm^2 bactericidal zone, E. coli J5: PROBIT analysis, E. coli J5 (rough). As for the experimental part: BPI proteolytic fragments produced according to Example 1 were screened for bactericidal effects using rough mutant E. coli J5 bacteria in a radial diffusion assay. Specifically, an overnight culture of E. coli J5 was diluted 1:50 into fresh tryptic soy broth and incubated for 3 hours at 37° C. to attain log phase growth of the culture. Bacteria were then pelleted at 3,000 rpm for 5 minutes in a Sorvall RT6000B centrifuge (Sorvall Instruments, Newton, Conn.). 5 mL of 10 mM sodium phosphate buffer (pH 7.4) was added and the preparation was re-pelleted. […] The bacteria were diluted to 4×10^6 CFU/mL in 10 mL of molten underlayer agarose (at approximately 45° C.) and inverted repeatedly to mix in 15 mL polypropylene tubes conventionally used for this purpose.
The entire contents of such tubes were then poured into a level square petri dish and distributed evenly by rocking the dish side-to-side. […] A series of wells were then punched into the hardened agarose using a sterile 3 mm punch attached to a vacuum apparatus. The punch was sterilized with 100% alcohol and allowed to air dry prior to use to avoid contaminating the bacterial culture.
5 or 10 μL of each of the BPI fragments were carefully pipetted into each well. As a negative control, dilution buffer (pH 8.3) was added to a separate well, and rBPI23 at concentrations of 5 μg/mL and 1 μg/mL were also added as positive controls. Each plate was incubated at 37° C. for 3 hours, and then 10 mL of molten overlayer agarose (at approximately 45° C.) was added into the level petri dish, allowed to harden and incubated overnight at 37° C. […] The bacterial zones were measured with a micrometer.

The nature of test [2]: 3H-heparin binding assay (affinity and capacity). Particulars: for cpm ^3H-Heparin bound: 100 picomoles of each fragment per well, saturating 3H-heparin 20 μg/mL, mean of duplicate wells ± range; for Heparin Capacity: heparin bound at saturation; for heparin binding capacity: direct heparin binding assay. As for the experimental part:
Briefly, each fragment was added to wells of a 96-well microtiter plate having a polyvinylidene difluoride membrane (Immunobilon-P, Millipore, Bedford, Mass.) disposed at the bottom of the wells. […] Positive control wells contained varying amounts of rBPI23. […] DuPont-NEN, Wilmington, Del.) were made in the blocking buffer and incubated in the BPI peptide-containing wells for one hour at 4° C. The unbound heparin was aspirated and the wells were washed three times with blocking buffer, dried and removed for quantitation in a liquid scintillation counter (Model 1217, LKB, Gaithersburg, Md.). Although BSA in the blocking buffer did show a low affinity and capacity to bind heparin, this was considered physiologically irrelevant and the background was routinely subtracted from the test compound signal.

A further test concerns Staphylococcus aureus. As to the kind of experiment: Radial diffusion bactericidal assay, Staphylococcus aureus. Type of test: cell-based. Conditions: radial diffusion; PROBIT analysis; S. aureus.
The subject of test [3] is E. coli 0111:B4 (smooth) bacteria. Put plainly: Radial diffusion bactericidal assay, E. coli 0111:B4. Format: cell-based. Particulars: radial diffusion; PROBIT analysis; E. coli O111:B4 (smooth).
The mark [4] stands for this setting: read-out: Kd of heparin binding.

As to “85-99: 15-mer pin-synthesized peptide corresponding to amino acids 85-99 of BPI, with cyclo(lysylprolyl) moiety on the carboxyl-terminus (IKISGKWKAQKRFLK-{cyclo(lysylprolyl)}; UniProt P17213 116-130, looked up, fragment)”, in test [1], the “bactericidal activity (in words)” value is “found to have bactericidal activity”.
In the case of “A2: Asp-N fragment of rBPI23, residues 15-38 (DYASQQGTAALQKELKRIKIPDYS; Asp-N fragment; UniProt P17213 46-69, looked up, fragment)”, the “cpm ^3H-Heparin bound” value in test [2] is given as 3,042 ± 162 cpm.
With “A3: Asp-N fragment of rBPI23, residues 39-56 (DSFKIKHLGKGHYSFYSM; UniProt P17213 70-87, looked up, fragment)”, the “cpm ^3H-Heparin bound” value in test [2] is 8,664 ± 128 cpm.
Turning to “Aβ-(1-naphthyl)Aβ-(1-naphthyl)RFLKF ([1Nal][1Nal]RFLKF) [BPI.140]”, the “pmol added to well to achieve a 30 mm^2 bactericidal zone, E. coli J5” value (from here on “pmol added to well … E. coli J5”) in test [1] turned out to be 84.76 pmol. Further, the “pmol added to well to achieve a 30 mm^2 bactericidal zone, S. aureus” value (from here on “pmol added to well … S. aureus”) with Staphylococcus aureus is 9,977.71 pmol. For the same substance, the “pmol added to well to achieve a 30 mm^2 bactericidal zone, E. coli O111:B4” value (“pmol added to well … E. coli O111:B4” for short) in test [3] amounted to 605.34 pmol.
The corresponding values for “BPI.65(Ox) (CIKISGKWKAQKRFLKC; not fully specified (bridges); also: oxidized)” are 849.79 pmol, 11,960.00 pmol and “b (no detectable activity up to 5 μg/well)”.
In the case of “C2: CNBr fragment of rBPI23, residues 57-70 (DIREFQLPSSQISM; CNBr fragment; UniProt P17213 88-101, looked up, fragment)”, in test [2], the “cpm ^3H-Heparin bound” value is 6,262 ± 182 cpm.
Still for that read-out and setting: in the case of “C3: CNBr fragment of rBPI23, residues 71-100 (VPNVGLKFSISNANIKISGKWKAQKRFLKM; CNBr fragment; UniProt P17213 102-131, looked up, fragment)” it was 81,655 ± 3,163 cpm; in that of “C4: CNBr fragment of rBPI23, residues 101-111 (SGNFDLSIEGM; CNBr fragment; UniProt P17213 132-142, looked up, fragment)”, 4,686 ± 4 cpm; in that of “C6: CNBr fragment of rBPI23, residues 171-196 (NSQVCEKVTNSVSSELQPYFQTLPVM; CNBr fragment; UniProt P17213 202-227, looked up, fragment)”, 26,204 ± 844 cpm.
For the substance CIKISGKWKAQKRFLKC [BPI.65 (ox.)], in test [2], the “Heparin Capacity” value was 190.6 ng. Further, in test [2] (read-out: Heparin Affinity), the Kd worked out at 160 nM.
With CIKISGKWKAQKRFLKC [BPI.65 (red.)], in test [1], the “bactericidal activity (in words)” value is “highly bactericidal”. Also, in test [2], the “heparin binding capacity (in words)” value was “extremely high heparin capacity” and the “Heparin Capacity” value was 279.6 ng. The Kd in test [2] (read-out: Heparin Affinity) was determined as 216 nM.
CIKISGKWKAQKRPLC [BPI.57]: the “pmol added to well … E. coli J5” value in test [1] stood at 514.03 pmol. For the same substance, the “pmol added to well … S. aureus” value in the test on Staphylococcus aureus is “b (no detectable activity up to 5 μg/well)”. For the same substance, in test [3], the “pmol added to well … E. coli O111:B4” value was “b (no detectable activity up to 5 μg/well)”.
Turning to “Cecropin A (KWKLFKKIEKVGQNIRDGIIKAGPAVAVVGQATQIAK; ends and bridges not checked; UniProt P01507 27-63, looked up) [antibacterial peptide of lepidopteran insects (Sigma), reference compound]”, in test [2], the heparin binding capacity is on record as 242 ng heparin/2 μg peptide and the “Heparin Capacity” value amounted to 242.0 ng. The Kd in test [2] (read-out: Heparin Affinity) was found to be 395 nM. In addition, the Kd in test [2] (setting [4]) was found to be 395 nM.
As for GTAALQKELKRIKIP [BPI.54], in test [1], the “bactericidal activity (in words)” value is “little or no bactericidal activity” and the “pmol added to well … E. coli J5” value is given as “b (no detectable activity up to 5 μg/well)”. In test [2], the “heparin binding capacity (in words)” value is reported as “low heparin binding capacity” and the “Heparin Capacity” value amounted to 64.3 ng. The Kd in test [2] (read-out: Heparin Affinity) worked out at 237 nM. In test [3], the “pmol added to well … E. coli O111:B4” value is given as “b (no detectable activity up to 5 μg/well)”.
For the substance “IKISGKAβ-(1-naphthyl)KAAβ-(1-naphthyl)Aβ-(1-naphthyl)RFLK (IKISGK[1Nal]KA[1Nal][1Nal]RFLK) [BPI.122]”, the “pmol added to well … E. coli J5” value in test [1] worked out at 179.89 pmol. In the test on Staphylococcus aureus, the “pmol added to well … S. aureus” value is on record as 2,631,667.24 pmol. Moreover, the “pmol added to well … E. coli O111:B4” value in test [3] is recorded as 2,123.57 pmol.
The corresponding values for “IKISGKAβ-(1-naphthyl)KAQAβ-(1-naphthyl)RFLK (IKISGK[1Nal]KAQ[1Nal]RFLK) [BPI.112]” are 1,485.92 pmol, “b (no detectable activity up to 5 μg/well)” and “b (no detectable activity up to 5 μg/well)”.
Turning to IKISGKWKAAARFLK [BPI.45], in test [1], the “pmol added to well … E. coli J5” value is on record as 1,301.80 pmol. Also, the “Heparin Capacity” value in test [2] was determined as 160.7 ng. The Kd in test [2] (read-out: Heparin Affinity) came to 153 nM. Also, the “pmol added to well … E. coli O111:B4” value in test [3] is 4,849.00 pmol.
On to “IKISGKWKAAβ-(1-naphthyl)Aβ-(1-naphthyl)RFLK (IKISGKWKA[1Nal][1Nal]RFLK) [BPI.121]”, for which the “pmol added to well … E. coli J5” value in test [1] was 154.35 pmol. In addition, the “pmol added to well … S. aureus” value with Staphylococcus aureus is reported as 941,388.07 pmol. Moreover, in test [3], the “pmol added to well … E. coli O111:B4” value is recorded as 1,856.40 pmol.
Turning to IKISGKWKAQERFLK [BPI.136], in test [1], the “pmol added to well … E. coli J5” value is given as 18,846.44 pmol. Moreover, the “pmol added to well … S. aureus” value in the test with Staphylococcus aureus is given as “b (no detectable activity up to 5 μg/well)”. The “pmol added to well … E. coli O111:B4” value in test [3] was “b (no detectable activity up to 5 μg/well)”.
With KSKVWLIQLFHKK [BPI.11], the “pmol added to well … E. coli J5” value in test [1] was found to be 638.30 pmol. Further, in test [2], the “Heparin Capacity” value was 290.5 ng. Also, the Kd in test [2] (read-out: Heparin Affinity) was determined as 744 nM. The “pmol added to well … E. coli O111:B4” value in test [3] is “b (no detectable activity up to 5 μg/well)”.
For “Limulus anti-LPS factor [LALF, reference compound]”, in test [2], the heparin binding capacity is on record as 195.3 ng heparin/2 μg peptide and the “Heparin Capacity” value was found to be 195.3 ng. Moreover, the Kd in test [2] (read-out: Heparin Affinity) was determined as 1290 nM. Besides, in test [2] (setting [4]), the Kd was determined as 1290 nM.
In the case of “Polymyxin B peptide [PMB Peptide, reference compound]”, in test [2], the heparin binding capacity is recorded as 58.0 ng heparin/2 μg peptide and the “Heparin Capacity” value is 58.01 ng. Further, the Kd in test [2] (read-out: Heparin Affinity) turned out to be 309 nM.
As for SVHVHISKSKVGWLIQLFHKKIESALRNK [BPI.12], in test [1], the “pmol added to well … E. coli J5” value worked out at 524.80 pmol. Further, the “Heparin Capacity” value in test [2] is given as 231.5 ng. The Kd in test [2] (read-out: Heparin Affinity) is 285 nM. In addition, the “pmol added to well … E. coli O111:B4” value in test [3] was “b (no detectable activity up to 5 μg/well)”.
As to magainin II amide [reference compound], the heparin binding capacity in test [2] was found to be 437.7 ng heparin/2 μg peptide. Moreover, in test [2], the “Heparin Capacity” value turned out to be 453.7 ng. The Kd in test [2] (read-out: Heparin Affinity) and in test [2] (setting [4]) was 3170 nM throughout.
